Molecular target: jack bean urease (Canavalia ensiformis, UniProt P07374)
Experiment: colorimetric urease inhibition assay (phenol/hypochlorite ammonia detection, […] nm)
Format: biochemical

Sequence of jack bean urease (P07374 whole entry, looked up): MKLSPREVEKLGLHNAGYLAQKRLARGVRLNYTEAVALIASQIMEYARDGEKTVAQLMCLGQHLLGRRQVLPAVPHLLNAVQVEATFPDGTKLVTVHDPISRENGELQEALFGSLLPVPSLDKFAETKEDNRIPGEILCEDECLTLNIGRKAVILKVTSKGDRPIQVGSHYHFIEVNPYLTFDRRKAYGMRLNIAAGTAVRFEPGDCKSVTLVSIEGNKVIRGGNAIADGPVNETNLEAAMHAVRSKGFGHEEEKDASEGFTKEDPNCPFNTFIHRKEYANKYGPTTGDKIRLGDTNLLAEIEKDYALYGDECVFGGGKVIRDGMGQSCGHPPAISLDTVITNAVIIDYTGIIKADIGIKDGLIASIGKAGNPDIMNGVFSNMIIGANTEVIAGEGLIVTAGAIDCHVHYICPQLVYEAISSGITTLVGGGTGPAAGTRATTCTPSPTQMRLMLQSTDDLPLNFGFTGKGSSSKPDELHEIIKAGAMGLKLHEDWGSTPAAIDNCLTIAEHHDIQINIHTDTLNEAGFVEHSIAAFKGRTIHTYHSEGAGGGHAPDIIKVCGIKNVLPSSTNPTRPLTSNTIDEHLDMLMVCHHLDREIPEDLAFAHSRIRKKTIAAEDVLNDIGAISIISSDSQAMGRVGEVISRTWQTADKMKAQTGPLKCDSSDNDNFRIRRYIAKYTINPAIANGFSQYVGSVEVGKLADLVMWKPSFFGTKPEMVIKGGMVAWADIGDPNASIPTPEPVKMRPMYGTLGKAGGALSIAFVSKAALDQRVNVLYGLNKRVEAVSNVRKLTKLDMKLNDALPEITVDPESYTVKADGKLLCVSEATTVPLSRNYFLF

Row | SMILES | IC50
1 | CC(C)=CCOc1c2ccoc2cc2oc(=O)ccc12 [isoimperatorin] | 36.4 µM
2 | NC(N)=S [thiourea] | 33.6 µM
